# Results from the SangsterLogP compilation.
row,SMILES,logP
1,Cc1cc(C)c2ccccc2c1C,4.49
2,Cc1ccc2c(C)cccc2c1,4.27
3,Cc1ccc2cc(C)ccc2c1,4.39
4,Cc1ccc2c(C)c(C)ccc2c1C,4.95
5,Cc1ccc2c(C)ccc(C)c2c1,4.55
6,Cc1cccc2c(C)cccc12,4.22
7,Cc1cc2c(C)ccc(C)c2cc1C,4.74
8,Cc1ccc2cccc(C)c2c1,4.19
9,Cc1ccc(C)c2ccccc12,4.22
10,Cc1cc(C)c2c(C)cccc2c1,4.52
11,Cc1ccc2ccc(C)cc2c1,4.37
12,Cc1ccc2ccccc2c1,3.96
13,Cc1cc(C)c2cc(C)ccc2c1,4.38
14,Cc1ccc(C)c2c(C)cccc12,4.48
15,Cc1ccc2cc(C)c(C)cc2c1,4.7
